Like-named read-outs stand apart in the source and are kept apart here. Marks after values point to notes of the source that are not given here.
How the values were obtained:
hARH1 [1] = target: T1, hARH1 (Homo sapiens, UniProt P54922); experiment: Removal of Arg-ADP-ribosylation from HeLa cell extracts (32P autoradiography); assay type: biochemical; conditions: arginine ADP-ribosylated whole cell lysate as substrate; 1-1,000 μM compound
T1 construct: made in house; host or cells: E. coli Rosetta (DE3)
T1 sequence (P54922 whole entry): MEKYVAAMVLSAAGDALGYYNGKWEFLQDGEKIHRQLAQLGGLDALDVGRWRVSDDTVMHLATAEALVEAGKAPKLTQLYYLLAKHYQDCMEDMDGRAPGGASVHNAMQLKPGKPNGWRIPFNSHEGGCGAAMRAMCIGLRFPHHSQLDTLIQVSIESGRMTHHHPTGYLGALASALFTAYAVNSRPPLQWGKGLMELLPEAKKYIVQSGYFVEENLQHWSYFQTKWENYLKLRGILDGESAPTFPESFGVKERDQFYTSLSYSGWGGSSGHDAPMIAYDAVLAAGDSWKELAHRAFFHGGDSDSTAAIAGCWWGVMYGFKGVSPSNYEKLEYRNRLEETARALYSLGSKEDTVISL
Procedure: In vitro modification of proteins from HeLa cell extracts by mARTC2.2 recombinant protein was performed, with minor modifications, as described earlier ([Palazzo et al., 2016]). Briefly, cells were grown to confluence on two 10-cm dishes, washed thrice with 50 mM TrisHCl (pH 7.5) and 200 mM NaCl and lysed in 800 μL of 50 mM Tris-HCl pH 7.5, 150 mM NaCl, 0.5% Triton X-100, 0.2 mM DTT and 1 μM olaparib at 4°C supplemented with cOmplete™ EDTA-free protease inhibitor (Roche). The cell extract was clarified by centrifugation. 12 uL of extract per reaction were supplemented with 15 mM MgCl2, 1 μM mARTC2.2 and 1 μCi ^32P-NAD^+ and incubated for 15 min at 30°C. Lysates were further incubated in presence of hydrolases for 45 min at 30°C. Reactions were stopped by addition of LDS sample buffer (Life Technologies) and incubation at 95°C for 3 min. Samples were then analysed by SDS-PAGE and autoradiography. For inhibitor study the hARH1 was pre-incubated with indicated amount of inhibitor for 5 min at RT.

hARH1 [2] = target: T1, hARH1; experiment: Enzyme kinetics and inhibition assay with fluorogenic substrate TFMU-ADPr; assay type: biochemical; conditions: for IC50: 20 μM TFMU-ADPr as substrate, triplicate
Procedure: (§1) Reactions were performed as described in ([Drown et al., 2018]). Briefly, reactions were carried out in 384-well plates using 50 mM Na2HPO4 (pH 7.4), 10 mM MgCl2, 5 mM DTT and indicated amounts of TFMU-ADPr as substrate. After shaking for 5 s, fluorescence was recorded at 5 s intervals for 15 min on a Molecular Devices SpectraMax M3 microplate reader (reader settings: λEx 385 nm, λEm 502 nm, λcutoff 495 nm, 6 reads/well, low gain). Initial reaction rates were determined by fitting the linear portions of reaction progress curves. Initial rates were plotted against substrate concentration and fit to the Michaelis-Menton equation using a non-linear curve-fitting algorithm in GraphPad Prism 6.
(§2) For inhibitor studies enzymes and inhibitor were pre-incubated for 5 min at RT before addition of substrate. Percent inhibition was calculated with the no enzyme and no inhibitor reactions as positive and negative controls, respectively. Dose-response curves were fit using GraphPad Prism 6.

LchARH3 [3] = target: T2, LchARH3 (Latimeria chalumnae, UniProt H3BCW1); assay type: biochemical; conditions: for inhibitory potential against ARH3 (in words): serine MARylated histone H3 peptide as substrate, 1-1,000 μM compound; for support of hydrolysis of Ser-ADPr and PAR by metal (in words): MgII-stripped enzyme, 100 μM metal salt
T2 construct: LchARH3 (GenBank: XP_005988572; aa residues 10-362); made in house; host or cells: E. coli Rosetta (DE3)
T2 sequence (H3BCW1 10-356 limits assumed): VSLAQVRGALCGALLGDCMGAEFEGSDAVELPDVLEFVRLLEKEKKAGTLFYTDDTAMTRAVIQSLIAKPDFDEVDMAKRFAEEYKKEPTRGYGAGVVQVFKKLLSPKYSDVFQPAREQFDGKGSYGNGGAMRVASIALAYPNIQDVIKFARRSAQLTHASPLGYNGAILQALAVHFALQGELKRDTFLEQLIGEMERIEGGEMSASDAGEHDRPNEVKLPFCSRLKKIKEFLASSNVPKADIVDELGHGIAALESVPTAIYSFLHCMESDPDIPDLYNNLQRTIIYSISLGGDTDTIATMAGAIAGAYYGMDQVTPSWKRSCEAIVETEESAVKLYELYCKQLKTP
Procedure: (§3) ARH3 activity assays were performed essentially as described ([Fontana et al., 2017]). Briefly, H3 peptide (aa 1-20, biotinylated) was modified by incubation with 0.5 μM PARP1, 1 μM HPF1 and activated DNA (Trevigen) in assay buffer (50 mM TrisHCl [pH 8], 200 mM NaCl, 2 mM MgCl2, 1 mM DTT, 10 μM NAD^+ and 1 μCi ^32P-NAD^+). Reactions were incubated for 30 min at 30°C and stopped by addition of 1 μM olaparib. Reaction were further incubated in presence of 1 μM hydrolase for 1 h at 30°C. Reactions were stopped by addition of LDS sample buffer (Life Technologies) and incubation at 95°C for 3 min. Samples were then analysed by SDS-PAGE, immunoblot and autoradiography. For inhibitor study the ARH3 was pre-incubated with indicated amount of inhibitor for 5 min at RT.

hARH3 [4] = target: T3, hARH3 (Homo sapiens, UniProt Q9NX46); experiment: Enzyme kinetics and inhibition assay with fluorogenic substrate TFMU-ADPr; assay type: biochemical; conditions: triplicate; for IC50: 20 μM TFMU-ADPr as substrate
T3 construct: made in house; host or cells: E. coli Rosetta (DE3)
T3 sequence (Q9NX46 1-363): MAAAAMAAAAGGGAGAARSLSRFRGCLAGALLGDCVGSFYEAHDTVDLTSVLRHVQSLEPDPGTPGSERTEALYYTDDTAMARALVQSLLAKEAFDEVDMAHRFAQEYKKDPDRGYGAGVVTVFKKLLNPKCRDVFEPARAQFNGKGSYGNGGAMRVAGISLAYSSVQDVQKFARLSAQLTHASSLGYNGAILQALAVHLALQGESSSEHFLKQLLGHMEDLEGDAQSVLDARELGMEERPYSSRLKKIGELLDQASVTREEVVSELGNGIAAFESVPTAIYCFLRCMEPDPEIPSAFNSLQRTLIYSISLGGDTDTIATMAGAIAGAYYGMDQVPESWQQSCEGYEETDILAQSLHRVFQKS
Procedure: as §1, §2

hARH3 [5] = target: T3, hARH3; experiment: De-modification of Ser-ADP-ribosyl H3 peptide and degradation of PAR (32P autoradiography); assay type: biochemical; conditions: for support of hydrolysis of Ser-ADPr and PAR by metal (in words): MgII-stripped enzyme, 100 μM metal salt
Procedure: as §3

hARH3 [6] = target: T3, hARH3; design: method as in Drown et al., 2018; conditions: in situ generation of Arg-ADPr; ref Drown et al., 2018; cited from earlier work
LchARH3 [7] = target: T2, LchARH3; experiment: biochemical; assay type: binding; conditions: for TM / ΔTM: 100 μM metal salt; for TM: n = 6; for ΔTM: ΔTM = TM (salt) - TM (apo)
Procedure: LchARH3 WT was purified as described above and dialysed against 50 mM TrisHCl (pH 8), 200 mM NaCl, 20 mM EDTA, 1 mM DTT and 5% (v/v) glycerol. EDTA was removed by dialysing twice against 50 mM TrisHCl (pH 8), 200 mM NaCl, 1 mM DTT and 5% (v/v) glycerol. Each dialysis step was carried out with a minimum 1:1,000 ratio of sample to buffer. Only samples with purity >90% (as assessed by SDS-PAGE) were used for subsequent DSF experiments.
Assays were performed essentially as described earlier ([Vivoli et al., 2014]). Briefly, 10 μM LchARH3 wt EDTA-treated, 10x SYPRO® Orange (ThermoFisher Scientific) and indicated amounts of metal salts in assay buffer (50 mM TrisHCl [pH 8], 200 mM NaCl and 1 mM DTT) were thermal denaturated in MicroAmp® Fast plates (Life Technologies) in a StepOne qPCR instrument (ThermoFisher Scientific). The initial temperature of 24°C was held for 2.5 min, followed by a ramp to 97.5°C at 0.5°C/45 sec and then 2 min pause at 98°C. Curves were fit using GraphPad Prism 6. For analysis recorded data were cropped two data points after recorded fluorescence signal maximum and the resulting curves fitted using the Boltzman equation F=BOTTOM+(TOP−BOTTOM)/1+e^(TM−T/SLOPE)
with TM, melting temperature; T, temperature; SLOPE, steepness of curve. For the inference of the binding constant the determined TM’s were plotted and analysed using a single binding site model: TM=BOTTOM+((TOP−BOTTOM)∗(1−(P−Kd−M+(P+M+Kd)^2∗(4∗P∗M)/2P))) with P, protein concentration; M, metal salt concentration; Kd dissociation constant.

hARH3 [8] = target: T3, hARH3; experiment: Differential scanning fluorimetry (DSF) with metal salts, MgII-depleted enzyme; assay type: binding; conditions: for TM / ΔTM: 100 μM metal salt; for TM: n = 3; for ΔTM: ΔTM = TM (salt) - TM (apo)
[9] = DSF, 16 metal salt dilutions, single-site ligand-binding model, triplicate ± SD, read-out: Kd
[10] = DSF, rounded, read-out: Kd of magnesium on its own

Row | Structure (SMILES) | TM (LchARH3 [7]) | ΔTM (LchARH3 [7]) | TM (hARH3 [8]) | ΔTM (hARH3 [8]) | also measured
1 | Nc1ncnc2c1ncn2[C@@H]1O[C@H](CO[P@](=O)(O)O[P@@](=O)(O)OC[C@H]2NC[C@H](O)[C@@H]2O)[C@@H](O)[C@H]1O [ADP-HPD, adenosine diphosphate (hydroxymethyl)pyrrolidinediol] |  |  |  |  | inhibitory potential against hARH1 (in words) (hARH1 [1]): only mild activity; inhibition of hARH1 (in words) (hARH1 [2]; IC50 conditions, 20 μM TFMU-ADPr): no inhibition; inhibitory potential against ARH3 (in words) (LchARH3 [3]): inhibited
2 | Nc1ncnc2c1ncn2C1OC(COP(=O)(O)OP(=O)(O)OCC2CC(O)CN2)C(O)C1O (centres unmarked) [ADP-HPM] |  |  |  |  | inhibitory potential against hARH1 (in words) (hARH1 [1]): only minor inhibitor potential; IC50 (hARH1 [2]): 164 µM; inhibitory potential against ARH3 (in words) (LchARH3 [3]): only minor inhibitor potential
3 | Nc1ncnc2c1ncn2C1OC(COP(=O)(O)OP(=O)(O)OCC2OC(O)C(O)C2O)C(O)C1O (centres unmarked) [ADPr, ADP-ribose] |  |  |  |  | inhibitory potential against hARH1 (in words) (hARH1 [1]): only mild activity; IC50 (hARH1 [2]): 228 µM; IC50 (hARH3 [4]): 3.2 µM; Ki (hARH3 [4]; TFMU-ADPr substrate): 1.08 ± 0.08 µM; inhibitory potential against ARH3 (in words) (LchARH3 [3]): inhibited; inhibitory potential against ARH3 (in words) (hARH3 [5]; serine MARylated histone H3 peptide as substrate, 1-1,000 μM compound): inhibited
4 | NC(=NCCC[C@H](N)C(=O)O)N[C@H]1O[C@H](COP(=O)(O)OP(=O)(O)OC[C@H]2O[C@@H](n3cnc4c(N)ncnc43)[C@H](O)[C@@H]2O)[C@@H](O)[C@H]1O [Arg-ADPr, arginine-ADP-ribose] |  |  |  |  | inhibition of hARH3 (in words) (hARH3 [6]): potent, cellular inhibitor of hARH3
5 | [Ca+2] [CaCl2, Calcium chloride dehydrate] | 44.4 ± 0.08 °C | 4.2 ^d °C | 50.1 ± 0.08 °C | 3.4 ^d °C | IC50 (hARH3 [4]): 13.7 µM; Kd (LchARH3 [7]; [9]): 431 ± 68 µM; inhibition of ARH3 by calcium (in words) (LchARH3 [3]; de-MARylation assay in presence of 1 mM MgCl2 or 1 mM MnCl2, 1-2,000 μM CaCl2): inhibitor of magnesium-, but not manganese-, supplemented ARH3; Kd (hARH3 [8]; [9]): 266 ± 42 µM
6 | O.O.O.O.O.O.[Cl-].[Cl-].[Co+2] [CoCl2, Cobalt(II) chloride hexahydrate] | 39.6 ± 0.28 °C | −0.6 °C | 46.7 ± 0.09 °C | 0.0 °C | 
7 | O.O.O.O.O.O.[Cl][Cr]([Cl])[Cl] [CrCl3, Chromium(III) chloride hexahydrate] | 40.1 ± 0.21 °C | −0.1 °C | 46.5 ± 0.04 °C | −0.3 °C | 
8 | [Cl][Cu][Cl] [CuCl2, Copper(II) chloride] | 39.0 ± 0.21 °C | −1.2 ^d °C | 40.5 ± 0.10 °C | −6.2 ^d °C | 
9 | [Cl-].[Li+] [LiCl, Lithium chloride] | 40.1 ± 0.16 °C | −0.1 °C | 46.6 ± 0.15 °C | −0.1 °C | 
10 | [Mg+2] [MgCl2, Magnesium chloride hexahydrate] | 41.4 ± 0.17 °C | 1.3 ^d °C | 46.7 ± 0.11 °C | 0.0 °C | Kd (LchARH3 [7]; [9]): 2300 ± 257 µM; Kd (LchARH3 [7]; [10]): ~2300 µM; apparent concentration needed to restore activity (LchARH3 [3]; EDTA-treated LchARH3, 1-1000 µM MgCl2): ~50 µM; support of hydrolysis of Ser-ADPr and PAR by metal (in words) (LchARH3 [3]): able to support hydrolysis of Ser-ADPr and PAR; support of hydrolysis of Ser-ADPr and PAR by metal (in words) (hARH3 [5]): able to support hydrolysis of Ser-ADPr and PAR; Kd (hARH3 [8]; [9]): 5410 ± 322 µM; Kd (hARH3 [8]; [10]): ~5400 µM
11 | [Mn+2] [MnCl2, Manganese(II) chloride tetrahydrate] | 51.5 ± 0.23 °C |  | 52.6 ± 0.09 °C |  | Kd (LchARH3 [7]): 175 ± 24 µM; support of hydrolysis of Ser-ADPr and PAR by metal (in words) (LchARH3 [3]): able to support hydrolysis of Ser-ADPr and PAR; support of hydrolysis of Ser-ADPr and PAR by metal (in words) (hARH3 [5]): able to support hydrolysis of Ser-ADPr and PAR; Kd (hARH3 [8]): 208 ± 12 µM
12 | O.O.O.O.O.O.[Cl][Ni][Cl] [NiCl2, Nickel(II) chloride hexahydrate] | 40.7 ± 0.22 °C | 0.5 °C | 46.4 ± 0.09 °C | −0.3 °C | 
13 | [Cl-].[Cl-].[Zn+2] [ZnCl2, Zinc chloride] | 37.4 ± 0.25 °C | −2.8 ^d °C | 44.1 ± 0.07 °C | −2.6 ^d °C | 
